Measurements reported in US11498930B2 (BLUERAY THERAPEUTICS (SHANGHAI) CO., LTD., priority 2018, dated 2022).
Read-outs that look alike come from different tables or passages of the source.

Assays:
SHP2^E76A protein = SHP2^E76A protein (Homo sapiens (Human), UniProt Q06124, E76A); test: SHP2 enzyme activity inhibition experiment; assay type: biochemical
How it was run: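 Compounds tested at 10 concentrations in 3-fold serial dilution. IC50 from a four-parameter Hill-slope nonlinear fit of enzyme activity versus concentration.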

[1] = tested on: phosphorylation level of intracellular protein kinase (ERK) in MOLM13 cells; test: Phosphorylated protein kinase (p-ERK) cell experiment (AlphaLISA); assay type: cell-based; details: Homo sapiens, MOLM-13, MOLM13 cells
MOLM-13 cells = test: MOLM-13 cell proliferation experiment; assay type: cell-based; details: Homo sapiens
Method: After 3 days, 5 µL of CellTiter-Glo reagent (Promega, ZG7572) was added to each well, and the plates were kept at room temperature in the dark for 10 minutes. The […] was detected by Spectra max i3 (Molecular Devices). The relative growth rate of the treated cells was compared with that of DMSO control.

[2] = SHP2 enzyme activity, Tables 1.1 and 1.2, read-out: IC50
[3] = Table 4, read-out: SHP2 enzyme activity IC50
[4] = p-ERK, 2 hours of cell treatment, Tables 2.1 and 2.2, read-out: IC50
[5] = MOLM-13, 72 h, MOLM-13 cell proliferation, 3 days, Tables 3.1 and 3.2, read-out: IC50
[6] = MOLM-13, read-out: MOLM-13 cell proliferation IC50

Chain of SHP2^E76A protein (Q06124 whole entry E76A): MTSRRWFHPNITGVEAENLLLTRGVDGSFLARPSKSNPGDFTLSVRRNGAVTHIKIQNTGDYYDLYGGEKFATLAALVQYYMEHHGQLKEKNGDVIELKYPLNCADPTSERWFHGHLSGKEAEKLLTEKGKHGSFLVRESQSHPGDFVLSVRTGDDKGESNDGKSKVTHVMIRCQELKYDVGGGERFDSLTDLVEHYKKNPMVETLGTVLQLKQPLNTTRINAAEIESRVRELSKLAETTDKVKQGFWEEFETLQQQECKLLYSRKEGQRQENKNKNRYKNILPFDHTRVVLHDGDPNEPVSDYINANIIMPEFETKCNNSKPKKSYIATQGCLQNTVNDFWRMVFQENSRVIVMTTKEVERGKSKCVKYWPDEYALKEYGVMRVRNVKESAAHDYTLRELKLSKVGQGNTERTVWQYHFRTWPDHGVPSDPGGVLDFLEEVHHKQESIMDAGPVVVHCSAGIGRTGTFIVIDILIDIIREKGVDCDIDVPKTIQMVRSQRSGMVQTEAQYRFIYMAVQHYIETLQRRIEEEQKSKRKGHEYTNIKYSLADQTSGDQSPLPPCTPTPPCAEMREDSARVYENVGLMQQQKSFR

Structure (SMILES) | IC50 (SHP2^E76A protein; [2]) [nM] | IC50 (SHP2^E76A protein; [3]) [nM] | IC50 ([1]; Table 4, read-out: p-ERK IC50) [nM] | IC50 [1, 4] [nM] | IC50 (MOLM-13 cells; [5]) [nM] | IC50 (MOLM-13 cells; [6]) [nM]
Nc1cccc(Sc2cnc(N3CCC4(CCC[C@H]4N)CC3)n3cnnc23)c1Cl [(R)-8-(8-((3-amino-2-chlorophenyl)thio)-[1,2,4]triazolo[4,3-c]pyrimidin-5-yl)-8-azaspiro[4.5]decan-1-amine] | < 100 | 25 | 245 | 100 to 1000 | 100 to 1000 | 389
CN(C)c1nccc(Sc2cnc(N3CCC4(CCC[C@H]4N)CC3)n3ccnc23)c1Cl [(R)-8-(8-((3-chloro-2-(dimethylamino)pyridin-4-yl)thio)imidazo[1,2-c]pyrimidin-5-yl)-8-azaspiro[4.5]decan-1-amine] | < 100 | – | – | 100 to 1000 | 100 to 1000 | –
N[C@@H]1CCCC12CCN(c1ncc(Sc3ccnc(F)c3Cl)c3nccn13)CC2 [(R)-8-(8-((3-chloro-2-fluoropyridin-4-yl)thio)imidazo[1,2-c]pyrimidin-5-yl)-8-azaspiro[4.5]decan-1-amine] | < 100 | – | – | 100 to 1000 | 100 to 1000 | –
COc1nccc(Sc2cnc(N3CCC4(CCC[C@H]4N)CC3)n3ccnc23)c1Cl [(R)-8-(8-((3-chloro-2-methoxypyridin-4-yl)thio)imidazo[1,2-c]pyrimidin-5-yl)-8-azaspiro[4.5]decan-1-amine] | < 100 | – | – | 100 to 1000 | 100 to 1000 | –
Cc1nccc(Sc2cnc(N3CCC4(CCC[C@H]4N)CC3)n3ccnc23)c1Cl [(R)-8-(8-((3-chloro-2-methyl-pyridin-4-yl)thio)imidazo[1,2-c]pyrimidin-5-yl)-8-azaspiro[4.5]decan-1-amine] | < 100 | 40 | 180 | 100 to 1000 | < 100 | 58
Cc1nccc(Sc2cnc(N3CCC4(CCC[C@H]4N)CC3)n3cnnc23)c1Cl [(R)-8-(8-((3-chloro-2-methylpyridin-4-yl)thio)-[1,2,4]triazolo[4,3-c]pyrimidin-5-yl)-8-azaspiro[4.5]decan-1-amine] | < 100 | 27 | 177 | 100 to 1000 | 100 to 1000 | 232
N[C@@H]1CCCC12CCN(c1ncc(Sc3ccnnc3Cl)c3nccn13)CC2 [(R)-8-(8-((3-chloropyridazin-4-yl)thio)imidazo[1,2-c]pyrimidin-5-yl)-8-azaspiro[4.5]decan-1-amine] | 100 to 1000 | – | – | 100 to 1000 | 100 to 1000 | –
N[C@@H]1CCCC12CCN(c1ncc(Sc3ccncc3Cl)c3nncn13)CC2 [(R)-8-(8-((3-chloropyridin-4-yl)thio)-[1,2,4]triazolo[4,3-c]pyrimidin-5-yl)-8-azaspiro[4.5]decan-1-amine] | 100 to 1000 | 100 | 357 | 100 to 1000 | 100 to 1000 | 324
N[C@@H]1CCCC12CCN(c1ncc(Sc3ccncc3Cl)c3nccn13)CC2 [(R)-8-(8-((3-chloropyridin-4-yl)thio)imidazo[1,2-c]pyrimidin-5-yl)-8-azaspiro[4.5]decan-1-amine] | 100 to 1000 | – | – | 100 to 1000 | 100 to 1000 | –
Nc1cc(Sc2cnc(N3CCC4(CCC[C@H]4N)CC3)n3ncnc23)c(Cl)c(Cl)n1 [(R)-8-(8-((6-amino-2,3-dichloropyridin-4-yl)thio)-[1,2,4]triazolo[1,5-c]pyrimidin-5-yl)-8-azaspiro[4.5]decan-1-amine] | 100 to 1000 | – | – | 100 to 1000 | 100 to 1000 | –
Nc1cc(Sc2cnc(N3CCC4(CCC[C@H]4N)CC3)n3cnnc23)c(Cl)c(Cl)n1 [(R)-8-(8-((6-amino-2,3-dichloropyridin-4-yl)thio)-[1,2,4]triazolo[4,3-c]pyrimidin-5-yl)-8-azaspiro[4.5]decan-1-amine] | < 100 | 20 | 750 | 100 to 1000 | 100 to 1000 | 303
Nc1cc(Sc2cnc(N3CCC4(CC3)CC(F)(F)C[C@H]4N)n3ccnc23)c(Cl)c(Cl)n1 [(R)-8-(8-((6-amino-2,3-dichloropyridin-4-yl)thio)imidazo[1,2-c]pyrimidin-5-yl)-3,3-difluoro-8-azaspiro[4.5]decan-1-amine] | < 100 | 35 | 62 | < 100 | 100 to 1000 | 150
Nc1cc(Sc2cnc(N3CCC4(CCC[C@H]4N)CC3)n3ccnc23)c(Cl)c(Cl)n1 [(R)-8-(8-((6-amino-2,3-dichloropyridin-4-yl)thio)imidazo[1,2-c]pyrimidin-5-yl)-8-azaspiro[4.5]decan-1-amine] | < 100 | 12 | 9 | < 100 | < 100 | 16
Cc1nc(N)cc(Sc2cnc(N3CCC4(CC3)CC(F)(F)C[C@H]4N)n3ccnc23)c1Cl [(R)-8-(8-((6-amino-3-chloro-2-methyl-pyridin-4-yl)thio)imidazo[1,2-c]pyrimidin-5-yl)-3,3-difluoro-8-azaspiro[4.5]decan-1-amine] | < 100 | 26 | 97 | < 100 | – | 150
Cc1nc(N)cc(Sc2cnc(N3CCC4(CCC[C@H]4N)CC3)n3ccnc23)c1Cl [(R)-8-(8-((6-amino-3-chloro-2-methyl-pyridin-4-yl)thio)imidazo[1,2-c]pyrimidin-5-yl)-8-azaspiro[4.5]decan-1-amine] | – | 17 | 37 | < 100 | – | 210
N[C@@H]1CCCC12CCN(c1ncc(Sc3cccc4ccccc34)c3nccn13)CC2 [(R)-8-(8-(naphthalen-1-ylthio)imidazo[1,2-c]pyrimidin-5-yl)-8-azaspiro[4.5]decan-1-amine] | < 100 | 28 | 490 | 100 to 1000 | 100 to 1000 | 150
N[C@@H]1CCCC12CCN(c1ncc(Sc3ccnc4ccccc34)c3nccn13)CC2 [(R)-8-(8-(quinolin-4-ylthio)imidazo[1,2-c]pyrimidin-5-yl)-8-azaspiro[4.5]decan-1-amine] | < 100 | 20 | 31 | 100 to 1000 | < 100 | 99
C=CC(=O)Nc1cccc(Sc2cnc(N3CCC4(CCC[C@H]4N)CC3)n3cnnc23)c1Cl [(R)-N-(3-((5-(1-amino-8-azaspiro[4.5]decan-8-yl)-[1,2,4]triazolo[4,3-c]pyrimidin-8-yl)thio)-2-chlorophenyl)acrylamide] | 100 to 1000 | – | – | 1000 to 10000 | 100 to 1000 | –
C=CC(=O)Nc1cccc(Sc2cnc(N3CCC4(CCC[C@H]4N)CC3)n3ccnc23)c1Cl [(R)-N-(3-((5-(1-amino-8-azaspiro[4.5]decan-8-yl)imidazo[1,2-c]pyrimidin-8-yl)thio)-2-chlorophenyl)acrylamide] | 100 to 1000 | – | – | 100 to 1000 | 100 to 1000 | –
N[C@@H]1COCC12CCN(c1ncc(Sc3cccc(Cl)c3Cl)c3ncnn13)CC2 [(S)-8-(8-((2,3-dichlorophenyl)thio)-[1,2,4]triazolo[1,5-c]pyrimidin-5-yl)-2-oxa-8-azaspiro[4.5]decan-4-amine] | 100 to 1000 | – | – | 1000 to 10000 | 100 to 1000 | –
